Source: patent US11517578B1, “Topical formulations containing erythritol and methods of treating skin conditions” (InnoMed Technologies, Inc., priority 2021, dated 2022)
Entries after “also recorded” stand apart in the source; their conditions may differ.

Test system: facial acne
Experiment: Topical treatment of facial acne in patients (case examples 1-3)
Format: in vivo, human
Conditions: patient history: OTC benzoyl peroxide gels and washes tried before the formulation
Description: In this example, a person visits a healthcare professional and complains of facial acne that has been persistent for the past three years. They describe sporadic facial breakouts that began gradually, varied in severity and never completely cleared. They explain that the breakouts contribute to feelings of low self-esteem.
The healthcare professional administers the formulation of erythritol and zinc to the patient. As detailed in Table 2, the formulation includes erythritol (3.75%) and zinc chloride (1.25%). The formulation allows for effective transdermal administration of the zinc chloride-erythritol mixture which can prevent or ameliorate bacterial growth at or near skin pores and hair follicles.
The patient is also advised to continue daily use of an OTC facial wash. After washing and rinsing the face, the patient applies the formulation to the entire face. After five to ten minutes, the face can be rinsed with water. The routine is repeated each day (i.e., twice per day). Within ten days, the acne is resolved by about 80% (i.e., about 80% of the acne is gone). The comedones, papules and pustules are less apparent and only visible at close proximity. The patient resumes twice daily use of the formulation. Within two weeks the signs/symptoms of acne are resolved by about 95%. The patient has a clear complexion. […]

O=C(OOC(=O)c1ccccc1)c1ccccc1 [benzoyl peroxide]
improvement of facial acne: without improvement; also recorded: minimal or no significant improvement
